Columns and labels:
NCK2 [1] = test: NCK2 phase separation with 1,6-hexanediol (Fig. S7C); assay type: biochemical, mouse; settings: 0%, 5%, and 10% 1,6-hexanediol, 60 mM NaCl, n = 3
Experimental: (§1) Purified NCK2 proteins were diluted in GST buffer to identical concentrations. At 500 mM NaCl present in this buffer, all NCK2 constructs were completely soluble. Phase transition was initiated by dilution in imidazole buffer (10 mM imidazole (Bio Basic) pH 7.0, 1 mM DTT, 1 mM EGTA (Millipore Sigma), 1 mM MgCl2, 2.5% Glycerol (Bioshop Canada), 3% Dextran (Millipore Sigma)) containing various amount of NaCl so that the final concentration of NaCl would correspond to those in Supplementary Fig. 7B. For all the other experiments, the phase transition of NCK2 proteins was assessed at 60 mM NaCl. […] The pellets to supernatant fractions were used to quantify phase transition at 60 mM NaCl (7 replicates) via Coomassie protein quantification. The involvement of weak hydrophobic interactions in NCK2 driven phase transition was assessed using 1,6-Hexanediol (Millipore Sigma) at 60 mM NaCl. Imidazole buffer containing 0%, 1%, 5%, and 10% 1,6-Hexanediol was first prepared and phase transition was initiated and analyzed as described above. Finally, the competition of SH3-2 dependent homotypic NCK2 interaction with an SH3-2 binding peptide was assessed in the presence of 5, 15, 45, 90, 150, or 300 μM PAK1 peptide ([…]) in imidazole buffer with 60 mM NaCl. […]

Abp1 (1xFLAG) = test: Western blot expression level of Abp1 SH3-swapped baits (Fig. S2A-B); assay type: cell-based, Saccharomyces cerevisiae; set-up: Flag (2 bands): unit not given here; settings: sheet FigS2A-B; for Ratio Swap/WT Flag: Flag signal relative to Abp1 WT (Abp1-1 to Abp1-4 = 1); for Flag (2 bands): Western blot Flag signal (2 bands), Abp1 WT, SH3-deleted or SH3-swapped
Experimental: Precultures of yeast cells expressing baits fused with the DHFR F[1,2]-FLAG were grown overnight at 30 °C with agitation in synthetic complete medium. The next day, cells were expanded in synthetic complete medium to reach their exponential phase (OD600 of around 1.0), pelleted, and frozen at −80 °C. The equivalent of fifty OD600 of cells was resuspended in ice-cold yeast lysis buffer (10 mM Tris-HCl pH 7.4, 150 mM NaCl, 0.5 mM EDTA (Millipore Sigma), 1% Triton X-100 (Millipore Sigma), and one cOmplete Mini Protease Inhibitor Cocktail (Millipore Sigma) per 10 mL) with […] glass beads (Millipore Sigma) and disrupted at 4 °C by 10 cycles of 2 min vortexing and 2 min cooldown. The equivalent of […] of lysed cells was used for the immunoprecipitation of the bait proteins using FLAG-M2 agarose beads (Millipore Sigma). The beads were incubated with the cell lysates for 120 min at 4 °C with a slow rotation, followed by three washes with the yeast lysis buffer.
Protein extracts and affinity-purified baits from yeast and human lysed cells were migrated on 10% polyacrylamide gels. The separated proteins were then transferred to nitrocellulose membranes. Validation of correct protein loading was done with ponceau staining of the membranes. Before the primary antibody incubations, membranes were blocked in 5% milk. Protein signals were detected on an Amersham Imager 600RGB (GE Healthcare) following the incubation of the membranes with the appropriate HRP-conjugated secondary antibodies and the Clarity Western ECL Substrate (Bio-Rad). The antibodies used in this study are M2-HRP (A8592, Sigma, 1/50,000), rabbit anti-FLAG (F7425, Sigma, 1/1000), PAK (SC-881, Santa Cruz, 1/200), p130cas/BCAR1 (SC-860, Santa Cruz, 1/200), actin (Cell Signaling Technology, 1/2000), anti-mouse HRP (Cell Signaling Technology, 1/10,000) and anti-rabbit HRP (Cell Signaling Technology, 1/10,000). The quantification of the WB signals was performed with the Amersham Imager 600 analysis software (GE Healthcare).

Abp1 PPIs = test: DHFR-PCA of Abp1 SH3-swapped baits (Fig. 2B-D, S2C, S2F); assay type: cell-based, Saccharomyces cerevisiae; settings: number of interactions of Abp1 carrying the named SH3; sheet FigS2A-B
Text: Having determined that multiple PPIs require SH3s, we asked whether the latter establish PPI specificity independently from their host proteins by swapping domains (Fig. 2A). Using the second round of genome editing, we individually replaced Abp1 SH3 with the 27 yeast SH3s and 3 human Abp1 orthologs’ SH3s (CTTN, HCLS1, and DBNL, Fig. 2B). The reintroduction of its own SH3 (Abp1SH3 in Abp1) reconstitutes almost perfectly Abp1’s interaction profile (Kendall’s τ = 0.93, Fig. 2B). […] No homologous SH3 domain fully re-establishes the normal Abp1 PPI profile (Fig. 2B and Supplementary Fig. 2C). However, we observe a significant correlation (cophenetic correlation = 0.20, p value = 0.005, Fig. 2C) between the similarity of PPI profiles (Fig. 2B) and the sequence similarity of the SH3s. […] Nonetheless, a subset of SH3-dependent PPIs is only observed with the endogenous domain. For instance, Hua2 and App1, both well-characterized partners of Abp1[14],[18],[19], are only detected when Abp1 contains its own SH3 (WT or swapped via editing). A given SH3 may therefore not be fully replaceable with other paralogous or orthologous domains. This pattern is confirmed by cellular growth phenotypic analyses (Supplementary Fig. 2D, E). PPIs, SH3 sequence similarity, and growth profiles under stress conditions are correlated (Supplementary Fig. 2D, E). This relationship is particularly clear when analyzing growth on media supplemented with hygromycin.
The stuffing of YSC84 SH3 rendered the strain sterile and was therefore not used for this study as the assays require crosses. For genes containing two SH3s (BZZ1 and BEM1), a combination of this first stuffer with a second one ([…]) coding for a highly similar linker ([…]) was used, which allowed targeting each SH3 position independently. The two N-terminal domains of SLA1, which are separated by six nucleotides, were stuffed by a single stuffer. Cells containing pCAS were selected via the G418 resistance cassette from the plasmid on YPD plates (YPD + NAT 100 μg/ml (DHFR F[1,2] selection) + G418 200 µg/mL (Bioshop Canada)). Colonies were randomly selected and grown in YPD media without G418 to allow plasmid loss. The correct insertion of the stuffer was validated by PCR and Sanger sequencing. The SH3-swapped, -shuffled, and -mutated strains were constructed following a second CRISPR–Cas9 editing step with the same procedures. The stuffer sequences were targeted by specific gRNAs (one gRNA per stuffer) and replaced by PCR amplified specific SH3 (with 40 bp homology arms) or libraries of mutated SH3 domains for Deep Mutational Scanning (DMS) with 78 bp flanking homology regions. Validation of the SH3 domain insertions was done as we previously described except for DMS libraries (see below).
The overall DHFR-PCA pipeline is based on Tarassov et al.[43] and the procedures have also been published as a visualized protocol. The screens were performed with robotically manipulated pin tools (BM5-SC1, S&P Robotics Inc.). First, the preys were cherry-picked from 96-well plates to omnitrays in a 384 format on YPD + HPH solid media. Plates were then combined into the 1536 format on YPD + HPH. The array was constituted of 575 preys previously shown to interact physically with at least one SH3-containing protein as reported in BioGRID V3.4.16 along with 40 negative controls. The prey array comprised a border of control strains of two rows and two columns corresponding to the PPI between LSM8-DHFR F[1,2] and CDC39-DHFR F[3]. This double border was used to remove border effects. Preys are present in duplicate at a randomized position in the 1536 array (except for YAL041W which is present four times per array). Baits were crossed with two prey plates, resulting in four independent bait–prey tests for each PPI. Baits were grown in liquid YPD + NAT and then transferred on solid YPD + NAT omnitrays. They were then replicated on YPD + NAT omnitrays in 1536 array format. […]

NCK2 [2] = test: NCK2 phase separation with PAK1 peptide competition (Fig. S7A); assay type: biochemical, mouse; settings: 5, 15, 45, 90, 150, or 300 μM peptide, 60 mM NaCl; phase contrast microscopy
Experimental: as §1

[3] = tested on: NCK2 interactome in HEK293T cells; test: AP-SWATH (DIA) quantitative MS of NCK2 PPIs (Fig. 5A-C); assay type: cell-based, human; settings: SAINT FDR < 1%; duplicates
Experimental: Human embryonic kidney 293T cells (HEK293T, ATCC:CRL-3216) were grown in Dulbecco’s Modified Eagle’s medium (DMEM) high glucose complemented with 10% fetal calf serum under 5% CO2 at 37 °C. Transient expression of cDNA in cells was performed by polyethylenimine (PEI, Millipore Sigma) transfections. Enrichment of phospho-dependent PPIs was done by treating HEK293T cells with the tyrosine phosphatase inhibitor pervanadate, freshly made by mixing 4 mM orthovanadate (Millipore Sigma) with 30% H2O2 (Millipore Sigma) in water in a 200:1 volume ratio. […]
NCK2 baits purified on beads from HEK293T cells (as previously described in the methods) were washed two additional times in 20 mM Tris-HCl pH 7.4 and eluted in 50 mM phosphoric acid. […] These were analyzed alongside four negative controls corresponding to transiently expressed 3×FLAG-GFP purified from HEK293T cells (as described for NCK2 constructs). […] The equivalent of one-third of each sample was used for the SWATH-libraries generation and another third for SWATH quantification. […] We validated that the same quantity of baits was used for each NCK2 chimeras by quantifying NCK2 peptides in each sample (see Supplementary Data 3). […]

Compound	Ratio Swap/WT Flag (Abp1 (1xFLAG))	Flag (2 bands) (Abp1 (1xFLAG))	Interactions in Abp1 (Abp1 PPIs)	further results
OCCCCCCO [1,6-hexanediol]	–	–	–	Effect on NCK2 phase separation (NCK2 [1]): disrupts all NCK2 SH3-shuffled proteins in a similar manner
Cdc25	0.6887	152280	27	–
DIQDKPPAPPMRNTST [PAK1 peptide]	–	–	–	Effect on NCK2 phase separation (NCK2 [2]): Phase separation is inhibited
Rvs167	0.1645	38158	91	–
WT NCK2: wild-type NCK2 adaptor (mouse cDNA) with three SH3s and one SH2	–	–	–	High confidence NCK2 PPIs [3]: 56 PPIs
